Our source for the IC50 and EC50 values is US20240376084A1, “INHIBITORS OF ALPHA-HEMOLYSIN OF STAPHYLOCOCCUS AUREUS” (Helmholtz-Zentrum Fur Infektionsforschung GmbH, priority 2021, published 2024).

For orientation: IC50 means the midpoint of a concentration-inhibition curve. The EC50 is the concentration that produces a half-maximal response. A low value points to a more potent agent.

For assay [1], the target named is hemolysin alpha from Staphylococcus aureus (Staphylococcus aureus, UniProt P09616). Briefly: cell-based.
Sequence of hemolysin alpha from Staphylococcus aureus (P09616 27-319 limits assumed): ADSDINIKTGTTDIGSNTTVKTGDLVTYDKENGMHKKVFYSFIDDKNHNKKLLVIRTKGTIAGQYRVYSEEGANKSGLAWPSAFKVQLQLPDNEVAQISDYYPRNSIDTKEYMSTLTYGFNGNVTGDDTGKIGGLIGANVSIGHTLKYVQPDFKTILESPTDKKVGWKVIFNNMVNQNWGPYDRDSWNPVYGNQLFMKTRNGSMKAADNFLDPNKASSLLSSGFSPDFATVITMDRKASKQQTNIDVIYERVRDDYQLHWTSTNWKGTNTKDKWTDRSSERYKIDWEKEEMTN
Assay [2] deals with S. aureus Alpha hemolysin (Staphylococcus aureus, UniProt P09616). Briefly: cell-based.
Sequence of S. aureus Alpha hemolysin (P09616 27-319 limits assumed): as above

Bounds are passed on as bounds.

In assay [1], `CCc1cc2[nH]c(=O)c(=O)[nH]c2cc1S(=O)(=O)Nc1ccc(Br)c(Cl)c1` [Compound 149, N-(4-bromo-3-chlorophenyl)-7-ethyl-2,3-dioxo-1,2,3,4-tetrahydroquinoxaline-6-sulfonamide] displayed an IC50 of 100 to 1000 nM. For the same molecule, the EC50 in assay [2] (A549-LDH Assay activity) was 100 to 1000 nM.

The molecule `Cc1cc2[nH]c(=O)c(=O)[nH]c2cc1S(=O)(=O)Nc1ccc(Br)cc1` [Compound 97, N-(4-bromophenyl)-7-methyl-2,3-dioxo-1,2,3,4-tetrahydroquinoxaline-6-sulfonamide] yielded an IC50 in assay [1] of 100 to 1000 nM. In addition, the EC50 in assay [2] (A549-LDH Assay activity) is 30 to 100 nM.

In assay [1], `O=c1[nH]c2cc(Cl)c(S(=O)(=O)Nc3ccc(-c4ccccc4)cc3)cc2[nH]c1=O` [Compound 98, N-([1,1′-biphenyl]-4-yl)-7-chloro-2,3-dioxo-1,2,3,4-tetrahydroquinoxaline-6-sulfonamide] yielded an IC50 of 100 to 1000 nM. The EC50 in assay [2] (A549-LDH Assay activity) was 100 to 1000 nM.

Turning to `Cc1cc2[nH]c(=O)c(=O)[nH]c2cc1S(=O)(=O)Nc1ccc(-c2ccc3cccnc3c2)c(C(F)(F)F)c1` [Compound 365, 7-methyl-2,3-dioxo-N-[4-(7-quinolyl)-3-(trifluoromethyl)phenyl]-1,4-dihydroquinoxaline-6-sulfonamide], the EC50 in assay [1] is under 30 nM; in assay [2] (A549-LDH Assay activity) it was 100 to 1000 nM.

Turning to `COc1ccc(-c2ccc(NS(=O)(=O)c3cc4[nH]c(=O)c(=O)[nH]c4cc3C)cc2Cl)c(F)c1` [Compound 261, N-[3-chloro-4-(2-fluoro-4-methoxy-phenyl)phenyl]-7-methyl-2,3-dioxo-1,4-dihydroquinoxaline-6-sulfonamide], the EC50 in assay [1] is under 30 nM; in assay [2] (A549-LDH Assay activity), 30 to 100 nM.

On to `Cc1nc2cc(-c3ncc(NS(=O)(=O)c4cc5[nH]c(=O)c(=O)[nH]c5cc4C)cc3Cl)ccc2o1` [Compound 375, N-[5-chloro-6-(2-methyl-1,3-benzoxazol-5-yl)-3-pyridyl]-7-methyl-2,3-dioxo-1,4-dihydroquinoxaline-6-sulfonamide], for which the EC50 in assay [1] and in assay [2] (A549-LDH Assay activity) was 30 to 100 nM in each case.

In assay [1], `Cc1cc(NS(=O)(=O)c2cc3[nH]c(=O)c(=O)[nH]c3cc2F)cc(C)c1-c1ccccc1` [Compound 74, N-(2,6-dimethyl-[1,1′-biphenyl]-4-yl)-7-fluoro-2,3-dioxo-1,2,3,4-tetrahydroquinoxaline-6-sulfonamide] had an IC50 of 100 to 1000 nM. For the same molecule, the EC50 in assay [2] (A549-LDH Assay activity) lay in the range of 100 to 1000 nM.

`Cc1ccc(-c2c(C)cc(NS(=O)(=O)c3cc4[nH]c(=O)c(=O)[nH]c4cc3C)cc2C)o1` [Compound 84, N-(3,5-dimethyl-4-(5-methylfuran-2-yl)phenyl)-7-methyl-2,3-dioxo-1,2,3,4-tetrahydroquinoxaline-6-sulfonamide] registered an IC50 in assay [1] of 100 to 1000 nM. Also, the EC50 in assay [2] (A549-LDH Assay activity) lay within 100 to 1000 nM.

As to `Cc1cc(NS(=O)(=O)c2ccc3[nH]c(=O)c(=O)[nH]c3c2)ccc1Br` [drawing 471 (R^2 = H), reference compound], the EC50 in assay [1] is 1690 nM; in assay [2] (LDH Assay EC50), 346 nM.

Regarding `Cc1cc2[nH]c(=O)c(=O)[nH]c2cc1S(=O)(=O)Nc1ccc(-c2sccc2C)c(Cl)c1` [Compound 62, N-(3-chloro-4-(3-methylthiophen-2-yl)phenyl)-7-methyl-2,3-dioxo-1,2,3,4-tetrahydroquinoxaline-6-sulfonamide], in assay [1], the IC50 lay within 30 to 100 nM. The EC50 in assay [2] (A549-LDH Assay activity) fell in the range of 100 to 1000 nM.

Consider `Cc1cc2[nH]c(=O)c(=O)[nH]c2cc1S(=O)(=O)Nc1ccc(-c2ccc3c(c2)NC(=O)CO3)c(Cl)c1` [Compound 355, N-[3-chloro-4-(3-oxo-4H-1,4-benzoxazin-6-yl)phenyl]-7-methyl-2,3-dioxo-1,4-dihydroquinoxaline-6-sulfonamide], for which the EC50 in assay [1] and in assay [2] (A549-LDH Assay activity) was under 30 nM throughout.

For the molecule `Cc1cc2[nH]c(=O)c(=O)[nH]c2cc1S(=O)(=O)Nc1ccc(-c2ccc(C#N)c(N(C)C)c2)c(Cl)c1` [Compound 360, N-[3-chloro-4-[4-cyano-3-(dimethylamino)phenyl]phenyl]-7-methyl-2,3-dioxo-1,4-dihydroquinoxaline-6-sulfonamide], the EC50 in assay [1] fell in the range of 30 to 100 nM; in assay [2] (A549-LDH Assay activity) it was 100 to 1000 nM.

In turn, `O=c1[nH]c2cc(F)c(S(=O)(=O)Nc3ccc(-c4cccc(N5CCCC5)c4)c(Cl)c3)cc2[nH]c1=O` [Compound 27, N-(2-chloro-3′-(pyrrolidin-1-yl)-[1,1′-biphenyl]-4-yl)-7-fluoro-2,3-dioxo-1,2,3,4-tetrahydroquinoxaline-6-sulfonamide] had a half-inhibitory concentration (IC50) in assay [1] of under 30 nM. The EC50 in assay [2] (A549-LDH Assay activity) lay within 1000 to 6000 nM.

Consider `O=c1[nH]c2cc(Cl)c(S(=O)(=O)Nc3ccc4ccccc4c3)cc2[nH]c1=O` [Compound 172, 7-chloro-N-(naphthalen-2-yl)-2,3-dioxo-1,2,3,4-tetrahydroquinoxaline-6-sulfonamide], for which the IC50 in assay [1] was in the range of 100 to 1000 nM. Further, the EC50 in assay [2] (A549-LDH Assay activity) fell in the range of 100 to 1000 nM.

The molecule `CN(C)c1cccc(-c2ccc(NS(=O)(=O)c3cc4[nH]c(=O)c(=O)[nH]c4cc3Cl)cc2Cl)c1` [Compound 9, 7-chloro-N-(2-chloro-3′-(dimethylamino)-[1,1′-biphenyl]-4-yl)-2,3-dioxo-1,2,3,4-tetrahydroquinoxaline-6-sulfonamide] had an IC50 in assay [1] of under 30 nM. In addition, in assay [2] (A549-LDH Assay activity), the EC50 lay in the range of 100 to 1000 nM.

As to `Cc1cc2[nH]c(=O)c(=O)[nH]c2cc1S(=O)(=O)Nc1ccc(-c2cc(F)cc(F)c2)c(Cl)c1` [Compound 309, N-[3-chloro-4-(3,5-difluorophenyl)phenyl]-7-methyl-2,3-dioxo-1,4-dihydroquinoxaline-6-sulfonamide], the figures for the EC50 in assay [1] and in assay [2] (A549-LDH Assay activity) were under 30 nM and 100 to 1000 nM, respectively.

For the molecule `O=c1[nH]c2cc(OC(F)(F)F)c(S(=O)(=O)Nc3ccc(-c4ccc(F)cc4)c(Cl)c3)cc2[nH]c1=O` [Compound 197, N-(2-chloro-4′-fluoro-[1,1′-biphenyl]-4-yl)-2,3-dioxo-7-(trifluoromethoxy)-1,2,3,4-tetrahydroquinoxaline-6-sulfonamide], the EC50 is 1000 to 3500 nM in assay [1] and 1000 to 6000 nM in assay [2] (A549-LDH Assay activity).

Regarding `Cc1cc2[nH]c(=O)c(=O)[nH]c2cc1S(=O)(=O)Nc1ccc(-c2cccc(C(N)=O)c2)c(Cl)c1` [Compound 245, 3-[2-chloro-4-[(7-methyl-2,3-dioxo-1,4-dihydroquinoxalin-6-yl)sulfonylamino]phenyl] benzamide], the EC50 in assay [1] is under 30 nM; in assay [2] (A549-LDH Assay activity), 30 to 100 nM.

On to `CCc1cc2[nH]c(=O)c(=O)[nH]c2cc1S(=O)(=O)Nc1ccc(C2CC2)cc1` [Compound 67, N-(4-cyclopropylphenyl)-7-ethyl-2,3-dioxo-1,2,3,4-tetrahydroquinoxaline-6-sulfonamide], for which, in assay [1], the IC50 fell in the range of 30 to 100 nM. Further, the EC50 in assay [2] (A549-LDH Assay activity) lay within 30 to 100 nM.

On to `Cc1cc2[nH]c(=O)c(=O)[nH]c2c(F)c1S(=O)(=O)Nc1ccc(-c2cccc(Cl)c2)c(Cl)c1` [Compound 43, N-(2,3′-dichloro-[1,1′-biphenyl]-4-yl)-5-fluoro-7-methyl-2,3-dioxo-1,2,3,4-tetrahydroquinoxaline-6-sulfonamide], for which the IC50 in assay [1] was in the range of 30 to 100 nM. In assay [2] (A549-LDH Assay activity), this molecule came in with an EC50 of 1000 to 6000 nM.

In assay [1], `Cc1cc(NS(=O)(=O)c2cc3[nH]c(=O)c(=O)[nH]c3cc2Cl)ccc1Br` [Compound 141, N-(4-bromo-3-methylphenyl)-7-chloro-2,3-dioxo-1,2,3,4-tetrahydroquinoxaline-6-sulfonamide] came in with an IC50 of 100 to 1000 nM. This molecule also returned an EC50 in assay [2] (A549-LDH Assay activity) of 100 to 1000 nM.

`CCOC(=O)c1ccccc1-c1ccc(NS(=O)(=O)c2cc3[nH]c(=O)c(=O)[nH]c3cc2C)cc1Cl` [Compound 138, ethyl 2′-chloro-4′-((7-methyl-2,3-dioxo-1,2,3,4-tetrahydroquinoxaline)-6-sulfonamido)-[1,1′-biphenyl]-2-carboxylate] had a concentration for half-maximal inhibition (IC50) in assay [1] of 1000 to 3500 nM. Further, the EC50 in assay [2] (A549-LDH Assay activity) fell in the range of 1000 to 6000 nM.

On to `Cc1cc(NS(=O)(=O)c2cc3[nH]c(=O)c(=O)[nH]c3cc2C)ccc1C(C)C` [Compound 117, N-(4-isopropyl-3-methylphenyl)-7-methyl-2,3-dioxo-1,2,3,4-tetrahydroquinoxaline-6-sulfonamide], for which, in assay [1], the IC50 is 100 to 1000 nM. In assay [2] (A549-LDH Assay activity), this molecule returned an EC50 of 100 to 1000 nM.

For the molecule `Cc1cc2[nH]c(=O)c(=O)[nH]c2cc1S(=O)(=O)Nc1ccc2c(c1)CCCC2` [Compound 54, 7-methyl-2,3-dioxo-N-(5,6,7,8-tetrahydronaphthalen-2-yl)-1,2,3,4-tetrahydroquinoxaline-6-sulfonamide], the IC50 in assay [1] fell in the range of 30 to 100 nM. The EC50 in assay [2] (A549-LDH Assay activity) lay within 100 to 1000 nM.

With `Cc1cc2[nH]c(=O)c(=O)[nH]c2cc1S(=O)(=O)Nc1ccc(C2=CCCCC2)c(Cl)c1` [Compound 274, N-[3-chloro-4-(cyclohexen-1-yl)phenyl]-7-methyl-2,3-dioxo-1,4-dihydroquinoxaline-6-sulfonamide], the EC50 in assay [1] and in assay [2] (A549-LDH Assay activity) was 30 to 100 nM each time.

For the molecule `Cc1cc2[nH]c(=O)c(=O)[nH]c2cc1S(=O)(=O)Nc1ccc(-c2cccc(CN)c2)c(Cl)c1` [Compound 342, N-[4-[3-(aminomethyl)phenyl]-3-chloro-phenyl]-7-methyl-2,3-dioxo-1,4-dihydroquinoxaline-6-sulfonamide], the figures for the EC50 in assay [1] and in assay [2] (A549-LDH Assay activity) were 1000 to 3500 nM and 100 to 1000 nM, respectively.

`Cc1cc2[nH]c(=O)c(=O)[nH]c2cc1S(=O)(=O)Nc1ccc(-c2ccc(C(F)(F)F)cc2)c(Cl)c1` [Compound 317, N-[3-chloro-4-[4-(trifluoromethyl)phenyl]phenyl]-7-methyl-2,3-dioxo-1,4-dihydroquinoxaline-6-sulfonamide]: the EC50 in assay [1] lay in the range of 100 to 1000 nM; in assay [2] (A549-LDH Assay activity) it was 1000 to 6000 nM.

Turning to `C#Cc1cc(NS(=O)(=O)c2cc3[nH]c(=O)c(=O)[nH]c3cc2C)ccc1-c1ccccc1` [Compound 252, N-(3-ethynyl-4-phenyl-phenyl)-7-methyl-2,3-dioxo-1,4-dihydroquinoxaline-6-sulfonamide], the EC50 is under 30 nM in assay [1] and 30 to 100 nM in assay [2] (A549-LDH Assay activity).

For `Cc1cc2[nH]c(=O)c(=O)[nH]c2cc1S(=O)(=O)Nc1ccc(-c2ccc3[nH]c(=O)[nH]c3c2)c(Cl)c1` [Compound 294, N-[3-chloro-4-(2-oxo-1,3-dihydrobenzimidazol-5-yl)phenyl]-7-methyl-2,3-dioxo-1,4-dihydroquinoxaline-6-sulfonamide], the EC50 in assay [1] and in assay [2] (A549-LDH Assay activity) was 100 to 1000 nM each time.
